In one assay the test system is Ndc80c^dwarf Nuf2 N128A. In words: Fluorescence polarization direct binding to Ndc80c^dwarf bearing Nuf2 N128A. The arrangement: species or system S. cerevisiae. The note with it: Ndc80c^dwarf Nuf2 N128A relative to wild-type Ndc80c^dwarf; Figure 3D. As for the experimental part: (§1) Figure 3. Fluorescence polarization measurements of Ndc80c^dwarf binding peptides from the N-terminal extensions of Mps1 and Ipl1. (A) Polarization of fluorescence from 20 nM Bodipy-FL Mps1(137–171) (Mps1 residues 137–171 plus a C-terminal cysteine modified with Bodipy-FL -- see Methods) and Bodipy-FL Ipl1 (26–39;45–59) as a function of Ndc80c^dwarf concentration. (B) Competition binding experiment: unlabeled competitor peptides (see figure annotation) were added in twofold serial dilutions to Bodipy-FL Mps1(137–171) and Ndc80c^dwarf at final concentrations of 20 nM and 500 nM respectively. Loss of polarization indicates displacement of bound Bodipy-FL Mps1(137–171) by the competitor. (C) As in (B), with competitor Mps1(137–171) peptides containing mutations that reduce affinity for Ndc80c[40]. (D) Polarization of fluorescence from 20 nM Bodipy-FL Mps1(137–171) as a function of the concentration of Ndc80c^dwarf bearing mutations in Nuf2 that interfere with its Mps1 interaction in cells. […] For the Ipl1 peptide, the second copy of the motif, not used for the fluorescence polarization experiments, is shown in the bottom line.
(§2) We also determined the binding of the Mps1 peptide with two Ndc80c^dwarf constructs bearing mutations characterized in the other accompanying paper -- N128A and F8A P9A[48]. […]
(In fluorescence polarisation assays a small probe gives low polarisation when free and higher when bound to something large.)

Assay [1] relates to Ndc80c^dwarf Nuf2 F8A P9A. As to the kind of experiment: Fluorescence polarization direct binding to Ndc80c^dwarf bearing Nuf2 F8A P9A. The arrangement: species or system S. cerevisiae. The note with it: Ndc80c^dwarf Nuf2 F8A P9A relative to wild-type Ndc80c^dwarf; Figure 3D. Here is the method: as §1, §2
The next assay has as its system Ndc80c^dwarf. In words: Pulldown of GST-fusions of Mps1 segments by Ndc80c^dwarf immobilized on Ni-NTA agarose. It is filed as binding, S. cerevisiae. The settings on record: 6-His Ndc80c^dwarf on Ni-NTA agarose, 30 min incubation, SDS-PAGE read-out; Figure 1B lane 12. An excerpt: The long, N-terminal extension (residues 1–430) of yeast Mps1 has no immediately evident homology with sequences in metazoan Mps1 shown to interact with Ndc80c. […] We examined conservation among the yeast orthologs by iterative searches with the program Jackhmmer[50]. Using the N-terminal 430 residues of S. cerevisiae Mps1 as query, we identified five segments conserved among point-centromere yeasts (Figure 1A). We carried out a set of pulldown experiments, expressing them as GST-fusions and incubating them with the “dwarf” Ndc80c construct (Ndc80c^dwarf)[51] immobilized on Ni-NTA agarose (Figure 1B). In this format, we expected avidity from GST dimerization and multivalent display of Ndc80c to enhance the assay sensitivity. Ndc80c captured only the GST fusion of a peptide containing residues 151–171 (Figure 1B, lane 12), which include the most conserved region with a consensus sequence (151)RRxRRF(I/L/F)(3–4x)RxxxLGPAxR(170)(Figure 1C). Lysine appears occasionally in place of arginine, except for the invariant R at the end of the motif. […]
Figure 1. […] The bar graph above the N-terminal domain represents conservation determined by iterative searches with Jackhmmer[50] and shown as “information content”, defined in ref[68]. […]

No end group written: not given here. *: point of attachment. BODIPYFLEthylmaleimide = Cc1cc(C)n2c1C=C1C=CC(CCC(=O)NCCN3C(=O)CC(*)C3=O)=[N+]1[B-]2(F)F

Chain of Ndc80c^dwarf Nuf2 F8A P9A (P40460 115-335 limits assumed): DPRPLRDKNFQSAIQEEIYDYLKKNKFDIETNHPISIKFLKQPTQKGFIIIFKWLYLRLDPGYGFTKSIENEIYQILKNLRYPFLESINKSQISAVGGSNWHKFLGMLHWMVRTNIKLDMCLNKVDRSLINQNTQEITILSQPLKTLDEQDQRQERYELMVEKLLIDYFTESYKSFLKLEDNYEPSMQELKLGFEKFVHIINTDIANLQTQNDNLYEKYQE
Chain of Ndc80c^dwarf Nuf2 F8A P9A (P33895 1-173 F8A/P9A limits assumed, further chain): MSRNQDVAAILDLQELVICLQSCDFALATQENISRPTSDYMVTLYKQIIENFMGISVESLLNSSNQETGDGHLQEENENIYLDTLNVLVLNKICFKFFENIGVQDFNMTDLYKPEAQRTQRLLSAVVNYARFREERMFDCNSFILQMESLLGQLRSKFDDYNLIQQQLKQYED
Chain of Ndc80c^dwarf Nuf2 N128A (P40460 115-315 limits assumed): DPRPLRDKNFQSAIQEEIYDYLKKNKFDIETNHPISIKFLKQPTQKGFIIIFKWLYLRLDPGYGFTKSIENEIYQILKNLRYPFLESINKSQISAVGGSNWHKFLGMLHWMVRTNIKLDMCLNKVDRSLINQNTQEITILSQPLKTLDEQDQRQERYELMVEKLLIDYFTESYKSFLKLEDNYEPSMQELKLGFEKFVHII
Chain of Ndc80c^dwarf Nuf2 N128A (P33895 1-158 N128A limits assumed, further chain): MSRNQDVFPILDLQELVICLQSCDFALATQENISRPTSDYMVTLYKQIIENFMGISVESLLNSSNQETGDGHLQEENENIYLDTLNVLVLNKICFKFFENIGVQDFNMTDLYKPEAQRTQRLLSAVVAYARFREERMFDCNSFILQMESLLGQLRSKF
Chain of Ndc80c^dwarf (P33895 1-150): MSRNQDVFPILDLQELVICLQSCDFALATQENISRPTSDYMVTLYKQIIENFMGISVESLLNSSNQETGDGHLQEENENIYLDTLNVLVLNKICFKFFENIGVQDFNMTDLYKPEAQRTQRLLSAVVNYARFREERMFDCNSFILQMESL
Chain of Ndc80c^dwarf (P40460 115-310, further chain): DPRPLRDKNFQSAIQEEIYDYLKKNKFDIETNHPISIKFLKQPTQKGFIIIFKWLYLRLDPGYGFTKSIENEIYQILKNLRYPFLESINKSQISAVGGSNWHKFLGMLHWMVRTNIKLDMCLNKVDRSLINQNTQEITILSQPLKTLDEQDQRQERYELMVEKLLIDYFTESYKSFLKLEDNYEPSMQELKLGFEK

Turning to “Bodipy-FL Mps1(137–171): Mps1 residues 137–171 plus a C-terminal cysteine modified with Bodipy-FL (RQNMKEDITAKYAERRSKRFLISNRTTKLGPAKRAC(BODIPYFLEthylmaleimide))”, the “affinity weaker than for the wild-type protein” value (in the assay on Ndc80c^dwarf Nuf2 N128A; in assay [1]) was “about 2 logs” in each case. In the case of “GST fusion of a peptide containing residues 151–171: GST-fusion of Mps1 residues 151–171 expressed from pGEX-6P1 (GSGGSGGSGGSGGSERRSKRFLISNRTTKLGPAKR; also: GST fusion, end not given here)”, the “capture of GST fusion by immobilized Ndc80c^dwarf” value with Ndc80c^dwarf is reported as “captured”.

Source of the values: paper PMC11847324, “A communication hub for phosphoregulation of kinetochore-microtubule attachment” (Current biology : CB, 2024).
